Reference: PubChem BioAssay AID248 (DTP/NCI, 2004)
Inconclusive results and toxic doses are left out. Rule as the data show it: active = T/C of 150% or more; inactive = T/C below 125%.

Tested on: L1210 leukemia ip in BDF1 mice, survival T/C
Assay: NCI In Vivo Anticancer Drug Screen. Data for tumor model L1210 Leukemia (intraperitoneal) in B6D2F1 (BDF1) mice
Conditions: endpoint: mean survival time, higher = longer survival
In short: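 Tumor was transplanted into mice, which were then dosed with test compound or vehicle alone. Survival was recorded for each group, and the treated figure was expressed relative to the control figure.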

[1] = dose: 100.0 mg/kg/injection, schedule: Q01DX009 (ip), vehicle: Klucel (hydroxypropylcellulose) (HPC)
[2] = dose: 100.0 mg/kg/injection, schedule: Q04DX003 (ip), vehicle: Klucel (hydroxypropylcellulose) (HPC)
[3] = dose: 200.0 mg/kg/injection, schedule: Q04DX003 (ip), vehicle: Klucel (hydroxypropylcellulose) (HPC)
[4] = dose: 400.0 mg/kg/injection, schedule: Q01DX009 (ip), vehicle: Klucel (hydroxypropylcellulose) (HPC)
[5] = dose: 400.0 mg/kg/injection, schedule: Q04DX003 (ip), vehicle: Klucel (hydroxypropylcellulose) (HPC)
[6] = dose: 100.0 mg/kg/injection, schedule: Q04DX003 (ip), vehicle: saline
[7] = dose: 200.0 mg/kg/injection, schedule: Q04DX003 (ip), vehicle: saline
[8] = dose: 100.0 mg/kg/injection, schedule: Q01DX001 (ip), vehicle: Klucel (hydroxypropylcellulose) (HPC)
[9] = dose: 200.0 mg/kg/injection, schedule: Q01DX001 (ip), vehicle: Klucel (hydroxypropylcellulose) (HPC)
[10] = dose: 400.0 mg/kg/injection, schedule: Q01DX001 (ip), vehicle: Klucel (hydroxypropylcellulose) (HPC)
[11] = dose: 100.0 mg/kg/injection, schedule: Q04DX003 (ip), vehicle: saline with Tween-80
[12] = dose: 200.0 mg/kg/injection, schedule: Q01DX009 (ip), vehicle: saline with Tween-80
[13] = dose: 200.0 mg/kg/injection, schedule: Q04DX003 (ip), vehicle: saline with Tween-80
[14] = dose: 400.0 mg/kg/injection, schedule: Q01DX009 (ip), vehicle: saline with Tween-80
[15] = dose: 400.0 mg/kg/injection, schedule: Q04DX003 (ip), vehicle: saline with Tween-80

Measured: T/C

C#CCCCCCCCCC(=O)NCC
inactive: [1] 100 % of control | [2] 95 % of control | [3] 93 % of control | [4] 104 % of control | [5] 108 % of control

OC(c1ccccc1)c1ccccn1 (configuration not stated)
inactive: [6] 92 % of control | [7] 115 % of control | dose: 400.0 mg/kg/injection, schedule: Q04DX003 (ip), vehicle: saline 101 % of control

O=c1ccc(=O)n(-c2ccccc2)[nH]1
inactive: [1] 95 % of control | [2] 92 % of control | dose: 200.0 mg/kg/injection, schedule: Q01DX009 (ip), vehicle: Klucel (hydroxypropylcellulose) (HPC) 93 % of control | [3] 106 % of control | dose: 267.0 mg/kg/injection, schedule: Q04DX003 (ip), vehicle: Klucel (hydroxypropylcellulose) (HPC) 110 % of control | [4] 95 % of control | [5] 104 % of control | dose: 600.0 mg/kg/injection, schedule: Q04DX003 (ip), vehicle: Klucel (hydroxypropylcellulose) (HPC) 105 % of control

COc1cc(/C=C2\C(O)C3CCN2CC3)cc(OC)c1OC (configuration not stated)
inactive: dose: 100.0 mg/kg/injection, schedule: Q04DX002 (ip), vehicle: saline 115 % of control | dose: 200.0 mg/kg/injection, schedule: Q04DX002 (ip), vehicle: saline 118 % of control

CCN(C(=O)CCl)C(C)(C)C(SSSC(c1ccc(Cl)cc1)C(C)(C)N(CC)C(=O)CCl)c1ccc(Cl)cc1 (configuration not stated)
inactive: [6] 95 % of control | [7] 91 % of control

COc1c(F)c(F)c(Oc2c(F)c(F)c(OC)c(F)c2F)c(F)c1F
inactive: [8] 99 % of control | [9] 92 % of control | [10] 94 % of control

COc1ccc(NC(=O)Oc2ccc3ccccc3c2)c(OC)c1
inactive: dose: 100.0 mg/kg/injection, schedule: Q04DX002 (ip), vehicle: Klucel (hydroxypropylcellulose) (HPC) 97 % of control | dose: 200.0 mg/kg/injection, schedule: Q04DX002 (ip), vehicle: Klucel (hydroxypropylcellulose) (HPC) 111 % of control | dose: 400.0 mg/kg/injection, schedule: Q04DX002 (ip), vehicle: Klucel (hydroxypropylcellulose) (HPC) 104 % of control

Cc1ccc(NC(=O)Nc2ccc(C)c(NC(=O)Nc3ccc(C)cc3C)c2)c(C)c1
inactive: [11] 90 % of control | [12] 103 % of control | [13] 95 % of control | [14] 109 % of control | [15] 93 % of control

CCOC(=O)C(CC(OCC)OCC)C(=O)OCC
inactive: dose: 100.0 mg/kg/injection, schedule: Q01DX009 (ip), vehicle: saline with Tween-80 95 % of control | [11] 101 % of control | [12] 96 % of control | [13] 108 % of control | [14] 96 % of control | [15] 100 % of control

NC(=O)c1ccc[n+](CCc2c[nH]c3ccccc23)c1
inactive: dose: 75.0 mg/kg/injection, schedule: Q01DX001 (ip), vehicle: saline with Tween-80 94 % of control | dose: 150.0 mg/kg/injection, schedule: Q01DX001 (ip), vehicle: saline with Tween-80 101 % of control | dose: 300.0 mg/kg/injection, schedule: Q01DX001 (ip), vehicle: saline with Tween-80 98 % of control

Clc1ccccc1C=C1c2ccccc2-c2ccccc21
inactive: [2] 103 % of control | [3] 100 % of control | [5] 96 % of control

COc1cccc(C(Cc2ccc(N3C(N)=NC(N)=NC3(C)C)cc2)C(=O)Nc2ccc(S(=O)(=O)F)cc2)c1 (configuration not stated)
inactive: dose: 50.0 mg/kg/injection, schedule: Q01DX001 (ip), vehicle: Klucel (hydroxypropylcellulose) (HPC) 99 % of control | [8] 99 % of control | [9] 96 % of control

O=C1C(C2OC2c2ccccc2)CCCC1C1OC1c1ccccc1 (configuration not stated)
inactive: dose: 100.0 mg/kg/injection, schedule: Q01DX009 (ip), vehicle: saline sonified 94 % of control | [2] 97 % of control | dose: 200.0 mg/kg/injection, schedule: Q01DX009 (ip), vehicle: saline sonified 97 % of control | [3] 98 % of control | dose: 400.0 mg/kg/injection, schedule: Q01DX009 (ip), vehicle: saline sonified 103 % of control | [5] 97 % of control

OC1(c2cccc(C(F)(F)F)c2)CCN(C2CC2)CC1
inactive: dose: 12.5 mg/kg/injection, schedule: Q04DX003 (ip), vehicle: Klucel (hydroxypropylcellulose) (HPC) 104 % of control | dose: 25.0 mg/kg/injection, schedule: Q04DX003 (ip), vehicle: Klucel (hydroxypropylcellulose) (HPC) 105 % of control | dose: 50.0 mg/kg/injection, schedule: Q04DX003 (ip), vehicle: Klucel (hydroxypropylcellulose) (HPC) 100 % of control

O=C1C2C3CCC(O3)C2C(=O)N1N1C(=O)C2C3CCC(O3)C2C1=O (configuration not stated)
inactive: dose: 100.0 mg/kg/injection, schedule: Q01DX009 (ip), vehicle: carboxymethylcellulose (CMC) 102 % of control | dose: 100.0 mg/kg/injection, schedule: Q04DX003 (ip), vehicle: carboxymethylcellulose (CMC) 110 % of control | dose: 200.0 mg/kg/injection, schedule: Q01DX009 (ip), vehicle: carboxymethylcellulose (CMC) 97 % of control | dose: 200.0 mg/kg/injection, schedule: Q04DX003 (ip), vehicle: carboxymethylcellulose (CMC) 111 % of control | dose: 400.0 mg/kg/injection, schedule: Q01DX009 (ip), vehicle: carboxymethylcellulose (CMC) 87 % of control | dose: 400.0 mg/kg/injection, schedule: Q04DX003 (ip), vehicle: carboxymethylcellulose (CMC) 101 % of control

O=C(O)C1CC(c2ccccc2)=NN1c1ccccc1 (configuration not stated)
inactive: [8] 104 % of control | [9] 90 % of control | [10] 93 % of control

CCOC(=O)C1C(=O)N(O)c2cnccc21 (configuration not stated)
inactive: dose: 100.0 mg/kg/injection, schedule: Q01DX001 (ip), vehicle: saline 107 % of control | dose: 200.0 mg/kg/injection, schedule: Q01DX001 (ip), vehicle: saline 107 % of control | dose: 400.0 mg/kg/injection, schedule: Q01DX001 (ip), vehicle: saline 88 % of control
